The assay addresses Tyrosine-protein kinase SYK (Homo sapiens, UniProt P43405). In words: Inhibition of spleen tyrosine kinase (unknown origin).

For orientation: IC50 means the concentration that gives 50% inhibition. As for `CN(C)CCN(C)c1ncc(C(N)=O)c(Nc2cccc(C(F)(F)F)c2)n1`, the 50% inhibitory concentration (IC50) (read-out: IC50) is above 10 µM. Still for that read-out and setting: for `CN(C)C(=O)c1cnc(NCCN)nc1Nc1cccc(C(F)(F)F)c1` the value was above 10 µM; for `CNc1nc(NCCN)ncc1C(N)=O`, above 10 µM.

As for `COc1ccc2c(c1)c(/C=C1\C(=O)Nc3ccc(S(=O)(=O)N(C)C)cc31)cn2C`, the 50% inhibitory concentration (IC50) entry is recorded as “Not Active”.

As for `CNC(=O)c1cnc(NCCN)nc1Nc1cccc(C(F)(F)F)c1`, the IC50 (read-out: IC50) is above 10 µM.

The values are drawn from ChEMBL document CHEMBL2424544, “Inhibitors of switch kinase 'spleen tyrosine kinase' in inflammation and immune-mediated disorders: a review” (Eur J Med Chem, 2013).
